Experimental data from patent publication US11839613B2, “Pyrimidine derivatives as PGE2 receptor modulators” (IDORSIA PHARMACEUTICALS LTD, priority 2017, dated 2023).

Experiments:
EP2 = EP2 (Homo sapiens (Human), UniProt P43116); experiment: hEP2 cAMP assay (SF295 glioblastoma cells, HTRF cAMP); format: cell-based; conditions: antagonistic activity
In short: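 PGE2-driven cAMP accumulation was measured by HTRF in SF295 cells, which express endogenous EP2 only. Cells in assay buffer with 2 mM IBMX were pre-incubated 45 min at RT, then incubated 30 min at RT. Detection used competition between cellular cAMP and d2-cAMP for a cryptate anti-cAMP antibody.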

PTGER2 (EP2) = PTGER2 (EP2) (Homo sapiens (Human), UniProt P43116); experiment: hEP2 b-arrestin assay (PathHunter HEK 293 PTGER2 b-arrestin cells); format: cell-based; conditions: antagonistic activity, beta-arrestin assay; read-out: hEP2 b-arr IC50
PTGER2 (EP2), sequence (P43116 whole entry): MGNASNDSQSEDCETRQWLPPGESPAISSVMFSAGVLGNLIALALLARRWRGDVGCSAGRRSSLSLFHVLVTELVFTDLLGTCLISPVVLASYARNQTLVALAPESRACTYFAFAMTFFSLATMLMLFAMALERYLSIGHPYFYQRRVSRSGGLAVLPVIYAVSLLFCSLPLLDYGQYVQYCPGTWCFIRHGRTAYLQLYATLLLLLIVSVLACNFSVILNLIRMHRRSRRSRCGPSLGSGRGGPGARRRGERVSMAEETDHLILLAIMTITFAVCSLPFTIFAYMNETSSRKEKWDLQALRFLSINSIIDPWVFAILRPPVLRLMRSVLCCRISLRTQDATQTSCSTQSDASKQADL
Experimental: Plate is pre-incubated 15 minutes at 37° C. Then five microliters of PGE2 (final conc. 5 μM) are transferred into the assay plate. Plate is incubated 120 minutes at 37° C.
(each concentration is measured in duplicate)

EP4 = EP4 (Homo sapiens (Human), UniProt P35408); experiment: hEP4 cAMP assay (BT549 breast cancer cells, HTRF cAMP); format: cell-based; conditions: antagonistic activity, PGE2 6 nM
EP4, sequence (P35408 whole entry): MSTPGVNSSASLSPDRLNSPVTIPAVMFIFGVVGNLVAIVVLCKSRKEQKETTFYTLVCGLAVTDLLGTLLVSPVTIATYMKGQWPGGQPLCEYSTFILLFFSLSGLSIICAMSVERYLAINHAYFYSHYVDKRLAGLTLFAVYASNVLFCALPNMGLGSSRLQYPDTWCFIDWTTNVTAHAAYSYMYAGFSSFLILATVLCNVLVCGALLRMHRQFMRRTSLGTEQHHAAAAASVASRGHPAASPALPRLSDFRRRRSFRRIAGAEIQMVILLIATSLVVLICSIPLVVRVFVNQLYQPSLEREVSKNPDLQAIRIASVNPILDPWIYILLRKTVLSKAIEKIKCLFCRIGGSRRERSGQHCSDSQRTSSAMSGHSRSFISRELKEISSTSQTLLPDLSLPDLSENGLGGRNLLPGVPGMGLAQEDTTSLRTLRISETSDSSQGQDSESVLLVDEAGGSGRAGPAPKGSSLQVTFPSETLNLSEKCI
In short: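 BT549 breast cancer cells (endogenous EP4) in HBSS/20 mM HEPES/0.2% BSA/2 mM IBMX preincubated 45 min at RT with compound, then stimulated 30 min at RT with 6 nM PGE2 (final). cAMP read by competitive HTRF immunoassay, signal inversely proportional to cAMP.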

PTGER4 (EP4) = PTGER4 (EP4) (Homo sapiens (Human), UniProt P35408); experiment: cell-based
PTGER4 (EP4), sequence (P35408 whole entry): as above

EP2, sequence (P43116 whole entry): as the sequence (P43116 whole entry) above

Row | SMILES | IC50 (EP2) | IC50 (PTGER2 (EP2)) | IC50 (EP4; BT549 cells) | IC50 (PTGER4 (EP4)) | IC50 (EP4)
1 | CCOc1cc(-c2cc(NCCc3cc(F)c4sccc4c3)ncn2)sc1CC(=O)O [Example 456, (3-Ethoxy-5-{6-[2-(7-fluoro-benzo[b]thiophen-5-yl)-ethylamino]-pyrimidin-4-yl}-thiophen-2-yl)-acetic acid] | 311 nM | 129 nM | 14 nM | 21 nM | 
2 | CCc1nc(-c2cc(NCCc3ccc4ccccc4c3C)ncn2)sc1C(=O)O [Example 351, 4-Ethyl-2-{6-[2-(1-methyl-naphthalen-2-yl)-ethylamino]-pyrimidin-4-yl}-thiazole-5-carboxylic acid] | 236 nM | 475 nM |  | 79 nM | 167 nM
3 | CCOc1cc(-c2cc(NCCc3ccc4[nH]ccc4c3)ncn2)sc1C(=O)O [Ex 32, 3-Ethoxy-5-{6-[2-(1H-indol-5-yl)-ethylamino]-pyrimidin-4-yl}-thiophene-2-carboxylic acid] | 161 nM | 199 nM |  | 56 nM | 18 nM
4 | COc1cc2c(cc1CCNc1cc(-c3ccc4oc(C(=O)O)cc4c3)ncn1)OCCO2 [Ex 93, 5-{6-[2-(7-Methoxy-2,3-dihydro-benzo[1,4]dioxin-6-yl)-ethylamino]-pyrimidin-4-yl}-benzofuran-2-carboxylic acid] | 85 nM | 275 nM |  | 1260 nM | 118 nM
5 | CCOc1cc(-c2cc(NCCc3cc4ccoc4cc3F)ncn2)ccc1OCC(=O)O [Ex 142, (2-Ethoxy-4-{6-[2-(6-fluoro-benzofuran-5-yl)-ethylamino]-pyrimidin-4-yl}-phenoxy)-acetic acid] | 177 nM | 121 nM |  | 180 nM | 127 nM
6 | CCOc1nc(-c2cc(NCCc3ccc4ccccc4c3C)ncn2)sc1-c1noc(=O)[nH]1 [Example 352, 3-(4-Ethoxy-2-{6-[2-(1-methyl-naphthalen-2-yl)-ethylamino]-pyrimidin-4-yl}-thiazol-5-yl)-[1,2,4]oxadiazol-5(4H)-one] | 142 nM | 42 nM |  | 5 nM | 24 nM
7 | CCOc1cc(-c2cc(NCCc3ccc4scc(C)c4c3)ncn2)ccc1OCC(=O)O [Example 466, (2-Ethoxy-4-{6-[2-(3-methyl-benzo[b]thiophen-5-yl)-ethylamino]-pyrimidin-4-yl}-phenoxy)-acetic acid] | 190 nM | 206 nM | 1210 nM | 171 nM | 
8 | CCOc1cc2c(cc1CCNc1cc(-c3ccc(C(=O)O)c(OC4CCC4)c3)ncn1)OCCO2 [Ex 196, 2-Cyclobutoxy-4-{6-[2-(7-ethoxy-2,3-dihydro-benzo[1,4]dioxin-6-yl)-ethylamino]-pyrimidin-4-yl}-benzoic acid] | 37 nM | 21 nM |  | 199 nM | 217 nM
9 | COc1cc2ccsc2cc1CCNc1cc(-c2ccc(C(=O)O)c(SC)c2)ncn1 [Ex 152, 4-{6-[2-(5-Methoxy-benzo[b]thiophen-6-yl)-ethylamino]-pyrimidin-4-yl}-2-methylsulfanyl-benzoic acid] | 111 nM | 119 nM |  | 352 nM | 145 nM
10 | CCOc1cc(-c2cc(NCCc3ccc4c(c3)OCCO4)ncn2)sc1C(=O)O [Ex 41, 5-{6-[2-(2,3-Dihydro-benzo[1,4]dioxin-6-yl)-ethylamino]-pyrimidin-4-yl}-3-ethoxy-thiophene-2-carboxylic acid] | 164 nM | 405 nM |  | 30 nM | 21 nM
11 | CCCc1cc(-c2cc(NCCc3ccc4ccccc4c3C)ncn2)cc(F)c1C(=O)O [Ex 74, 2-Fluoro-4-{6-[2-(1-methyl-naphthalen-2-yl)-ethylamino]-pyrimidin-4-yl}-6-propyl-benzoic acid] | 151 nM | 450 nM |  | 257 nM | 40 nM
12 | CCOc1cc(-c2cc(NCCc3cc(F)c4sccc4c3)ncn2)ccc1-c1noc(=O)[nH]1 [Example 451, 3-(2-Ethoxy-4-{6-[2-(7-fluoro-benzo[b]thiophen-5-yl)-ethylamino]-pyrimidin-4-yl}-phenyl)-[1,2,4]oxadiazol-5(4H)-one] | 660 nM | 71 nM | 16 nM | 21 nM | 

The remaining compounds from weak to strong by IC50 (EP2), led by results:

Row | IC50 (EP2) | IC50 (PTGER2 (EP2)) | IC50 (EP4; BT549 cells) | IC50 (PTGER4 (EP4)) | IC50 (EP4) | SMILES
13 | 67 nM | 59 nM |  | 6 nM | 6 nM | CCOc1cc(-c2cc(NCCc3cc4ccccc4cc3OC)ncn2)sc1C(=O)O [Ex 9, 3-Ethoxy-5-{6-[2-(3-methoxy-naphthalen-2-yl)-ethylamino]-pyrimidin-4-yl}-thiophene-2-carboxylic acid]
14 | 66 nM | 82 nM |  | 161 nM | 107 nM | CSc1cc(-c2cc(NCCc3ccc4sccc4c3)ncn2)ccc1C(=O)O [Ex 132, 4-[6-(2-Benzo[b]thiophen-5-yl-ethylamino)-pyrimidin-4-yl]-2-methylsulfanyl-benzoic acid]
15 | 61 nM | 56 nM |  | 179 nM | 81 nM | CCSc1cc(-c2cc(NCCc3cc4c(cc3OC)OCCO4)ncn2)ccc1C(=O)O [Ex 110, 2-Ethylsulfanyl-4-{6-[2-(7-methoxy-2,3-dihydro-benzo[1,4]dioxin-6-yl)-ethylamino]-pyrimidin-4-yl}-benzoic acid]
16 | 49 nM | 115 nM |  | 89 nM | 81 nM | CCOc1cc(-c2cc(NCCc3ccc4c(c3)OCO4)ncn2)sc1C(=O)O [Ex 111, 5-[6-(2-Benzo[1,3]dioxol-5-yl-ethylamino)-pyrimidin-4-yl]-3-ethoxy-thiophene-2-carboxylic acid]
17 | 46 nM | 55 nM |  | 29 nM | 95 nM | CCOc1cc(-c2cc(NCCc3ccc4ccccc4c3C)ncn2)sc1C(=O)NS(C)(=O)=O [Example 355, N-(3-Ethoxy-5-{6-[2-(1-methyl-naphthalen-2-yl)-ethylamino]-pyrimidin-4-yl}-thiophene-2-carbonyl)-methanesulfonamide]
18 | 45 nM | 10 nM | 148 nM | 54 nM |  | CCOc1cc(-c2cc(NCCc3c(OCC)cc4ccccc4c3C)ncn2)ccc1C(=O)O [Example 418, 2-Ethoxy-4-{6-[2-(3-ethoxy-1-methyl-naphthalen-2-yl)-ethylamino]-pyrimidin-4-yl}-benzoic acid]
19 | 41 nM | 12 nM |  | 14 nM | 36 nM | CCOc1cc(-c2cc(NCCc3cc4c(cc3C)OCCO4)ncn2)sc1-c1noc(=O)[nH]1 [Example 341, 3-(3-Ethoxy-5-{6-[2-(7-methyl-2,3-dihydro-benzo[1,4]dioxin-6-yl)-ethylamino]-pyrimidin-4-yl}-thiophen-2-yl)-[1,2,4]oxadiazol-5(4H)-one]
20 | 8 nM | 6 nM |  | 25 nM | 18 nM | CCOc1cc(-c2cc(NCCc3cc4ccsc4cc3C)ncn2)sc1C(=O)O [Ex 34, 3-Ethoxy-5-{6-[2-(6-methyl-benzo[b]thiophen-5-yl)-ethylamino]-pyrimidin-4-yl}-thiophene-2-carboxylic acid]
21 | 1 nM | 5 nM |  | 22 nM | 6 nM | CCOc1cc(-c2cc(NCCc3c(OC)cc4occc4c3C)ncn2)sc1C(=O)O [Ex 8, 3-Ethoxy-5-{6-[2-(6-methoxy-4-methyl-benzofuran-5-yl)-ethylamino]-pyrimidin-4-yl}-thiophene-2-carboxylic acid]
